Reference: US20070178577A1, “Method for effecting the anaerobic biological decomposition of organsiloxanes” (WACKER CHEMIE AG, priority 2004, published 2007)

What was measured:
Sewage sludge = experiment: Anaerobic decomposition of octamethylcyclosiloxane (D4) by sewage sludge with nitrate as electron acceptor, gas chromatography; conditions: in 11 days
Method: The experiment was carried out in accordance with Example 1. In each case five flasks were made up with sewage sludge and five flasks with inactivated sewage sludge. As carbon source, octamethylcyclosiloxane (D4) was added to the medium. The siloxane is immiscible with water and first forms an oily film on the culture surface. With advancing culture time, the siloxane oil is emulsified in the culture. Relatively large cell aggregates form. Culture proceeds in accordance with Example 1 in the mineral medium specified there (SM1) comprising 5 g/l of KNO3 as electron acceptor. As sole carbon source, octamethylcyclosiloxane (D4) was added to the batches (1 ml per 100 ml of medium). After differing incubation times, the D4 content of the batches was determined. The entire batch was extracted 3 times with 50 ml of pentane, and to facilitate phase separation, it was centrifuged each time. The pentane phases were combined and D4 determined quantitatively directly by means of gas chromatography (Hewlett Packard instrument hp5890_li). The gas-chromatographic determination proceeded using a 30 m capillary (Hewlett Packard HP-1 No. 59026323) using nitrogen as carrier gas. Temperature program: 50° C. (5 min)−270° C. at 20° C./min. Detection was by means of FID at 300° C. The resultant signal peaks were quantified using corresponding standard solutions.

[1] = system: Sewage sludge from a municipal sewage treatment plant; experiment: Anaerobic decomposition of dimethylsilanediol (DMSD) by sewage sludge with nitrate as electron acceptor, 1H-NMR; conditions: in 11 days
Excerpt: Sewage sludge from a municipal sewage treatment plant was taken off from running operations under oxygen-free conditions (N2-comprising sample vessels). To separate off interfering substrates, the cell mass was resuspended in 5-times the volume of an oxygen-free buffer (50 mmol/l of potassium phosphate pH 6.8) and centrifuged off. Oxygen-free solutions were produced by degassing the solution and purging with gaseous nitrogen.
The operation (resuspending/centrifuging) was repeated 3 times.
The washed oxygen-free cell mass was transferred in the absence of oxygen into shake flasks comprising culture medium (10 g of moist cell mass per 100 ml of medium). For control batches, the sewage sludge was autoclaved and inactivated thereby. […]
As electron acceptor, in addition, 5 g/l of KNO3 were added. […] Samples of the culture medium were taken off at regular intervals and analyzed immediately. […]
Analysis: In experiments using DMSD as a substrate, the change in concentration of DMSD in the aqueous phase was determined by means of proton magnetic resonance spectroscopy (^1H-NMR). […] Samples (0.9 ml) from the culture batches were taken off for this directly (via the stopper) from the vessel, admixed with standard (TSP in D2O; TSP=3-(trimethylsilyl)propionic acid-D4 sodium salt) and analyzed in the spectrometer. The DMSD signal can be quantified exactly via the known standard signal).

[2] = anaerobically incubated batch comprising sewage sludge
[3] = control batch (inactivated sewage sludge)

| SMILES | decrease in the amount of D4 (Sewage sludge; [2]) [%] | decrease in the amount of D4 (Sewage sludge; [3]) [%] | decrease of the amount of DMSD [1, 2] [%] | decrease of the amount of DMSD [1, 3] [%] |
| --- | --- | --- | --- | --- |
| C[Si]1(C)O[Si](C)(C)O[Si](C)(C)O[Si](C)(C)O1 [D4, Octamethylcyclosiloxane] | −16.3 | −6.2 |  |  |
| C[Si](C)(O)O [DMSD, Dimethylsilanediol] |  |  | −39 | −9 |
